According to PubChem BioAssay (NCI):
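48-hour exposure; five concentrations; linearly interpolated endpoints. At the GI50, growth is halved. TGI: total growth inhibition.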

How the values were obtained:
Experiment in all cases: inhibition of tumour cell growth, NCI panel, 48 h
[1] = tested on: M14 melanoma
[2] = tested on: OVCAR-3 ovarian
[3] = tested on: TK-10 renal
[4] = tested on: EKVX NSCLC
[5] = tested on: MALME-3M melanoma
[6] = tested on: NCI-H522 lung
[7] = tested on: LOX IMVI melanoma
[8] = tested on: HOP-92 NSCLC
[9] = tested on: RPMI-8226 leukemia
[10] = tested on: HL-60(TB) leukemia

| Structure (SMILES) | GI50 [1] [µM] | TGI [1] [µM] | GI50 [2] [µM] | TGI [2] [µM] | GI50 [3] [µM] | TGI [3] [µM] | GI50 [4] [µM] | TGI [4] [µM] | GI50 [5] [µM] | TGI [5] [µM] | GI50 [6] [µM] | TGI [6] [µM] | GI50 [7] [µM] | TGI [7] [µM] | GI50 [8] [µM] | TGI [8] [µM] | GI50 [9] [µM] | TGI [9] [µM] | GI50 [10] [µM] | TGI [10] [µM] |
| --- | --- | --- | --- | --- | --- | --- | --- | --- | --- | --- | --- | --- | --- | --- | --- | --- | --- | --- | --- | --- |
| O=C1Nc2cc(Cl)ccc2Oc2cc(Oc3ccccc3)ccc21 | 4.76 | 50.2 | 2.53 | 7.32 | 12 | 47.3 | 4.36 | 37.2 | 10.9 | 47.4 | 3.51 | > 100 | 5.51 | > 100 | 1.32 | 9.41 | 5.35 | > 100 | 3.6 | > 100 |
| Cc1cc(C)nc(NS(=O)(=O)c2ccc(NC(=O)c3cccc4c(Nc5ccc(S(=O)(=O)Nc6nc(C)cc(C)n6)cc5)c5ccccc5nc34)cc2)n1 | – | 54.9 | – | 39.8 | – | 73.3 | – | 55.1 | – | 56.7 | – | 32.8 | – | 38.7 | – | 45.1 | – | 61.8 | – | 48.9 |
| COc1ccc2nc3cccc([N+](=O)[O-])c3c(NCCN(CCO)CCO)c2c1 | 0.0128 | 0.0275 | 0.0187 | 0.0501 | 0.0307 | 0.229 | 0.107 | 0.698 | 0.0158 | 0.0408 | – | 0.018 | 0.0379 | 0.18 | 0.0278 | 0.0829 | 0.0155 | 0.102 | 0.0235 | 1.49 |
| O=C(CSc1nc2ccc([N+](=O)[O-])cc2[nH]1)Nc1cccc(Cl)c1 | 3.06 | 13.6 | 2.38 | 14 | 3.31 | 11.8 | 2.27 | 12.6 | 1.87 | 8.17 | 1.87 | 8.9 | 3.05 | 13 | 0.421 | 3.3 | 1.66 | > 27.8 | 3 | 12.2 |
| COc1ccc(NC(=O)CC/C(CC(=O)c2ccccc2Cl)=N\Nc2nnc(C)n2N)cc1 | – | – | – | – | – | > 100 | – | > 100 | – | > 100 | – | – | – | > 100 | – | > 100 | – | – | – | > 100 |
| COC1OCC(OS(=O)(=O)c2ccc(C)cc2)C(OC(=O)c2ccccc2)C1OC(=O)c1ccccc1 (centres undefined) | – | – | 2.95 | 61.7 | > 100 | > 100 | 45.3 | > 100 | 13.7 | > 100 | 1.56 | 7.09 | 5.05 | > 100 | 2.48 | > 100 | – | – | 4.08 | > 100 |
| COC(=O)CSc1ccccc1 | – | > 100 | – | > 100 | – | > 100 | – | > 100 | – | 59.8 | – | – | – | > 100 | – | 99.1 | – | > 100 | – | > 100 |
| [N-]=[N+]=Nc1ccccc1-[n+]1noc([O-])c1Br | – | > 100 | – | > 100 | – | > 100 | – | > 100 | – | > 100 | – | > 100 | – | – | – | > 100 | – | > 100 | – | > 100 |
